Measurements as given in patent publication US7335814B2, “Transgenic cells expressing glucosyltransferase nucleic acids” (The University of York, priority 2000, dated 2008).

Tests used:
Format in all cases: biochemical
UGT71C1 = biological target: T1, UGT71C1 (Arabidopsis thaliana, UniProt O82381); test: UGT71C1 glucosyltransferase specific activity towards phenolic compounds (reverse-phase HPLC); conditions: 1 mM phenolic compound, 5 mM UDP-glucose, 50 mM TRIS-HCl pH 7.0, 30° C., 30 min; mean of three replicates ± standard deviation
T1 construct: GST (N); made in house; host or cells: E. coli
T1 sequence (O82381 1-481): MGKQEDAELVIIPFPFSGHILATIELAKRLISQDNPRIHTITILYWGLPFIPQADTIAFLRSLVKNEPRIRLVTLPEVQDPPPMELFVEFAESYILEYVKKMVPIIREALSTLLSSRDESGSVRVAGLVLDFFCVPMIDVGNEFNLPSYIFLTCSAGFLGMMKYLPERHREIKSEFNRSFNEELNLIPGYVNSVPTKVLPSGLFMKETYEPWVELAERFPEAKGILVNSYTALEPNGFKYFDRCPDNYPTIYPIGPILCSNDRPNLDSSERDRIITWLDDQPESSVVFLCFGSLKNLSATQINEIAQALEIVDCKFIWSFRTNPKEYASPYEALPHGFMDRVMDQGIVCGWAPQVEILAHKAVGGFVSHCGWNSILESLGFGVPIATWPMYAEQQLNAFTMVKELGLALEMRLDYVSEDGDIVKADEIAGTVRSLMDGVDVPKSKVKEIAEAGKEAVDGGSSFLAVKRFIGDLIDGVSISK

recombinant GTase A233 = biological target: T2, recombinant GTase A233 (Arabidopsis thaliana, UniProt Q8W491); test: Specific activity of recombinant GTase producing O-glucosides against lignin precursors (HPLC); conditions: 30° C.; ND = not detected
T2 construct: made in house; host or cells: E. coli

recombinant GTase A407 = biological target: T3, recombinant GTase A407 (Arabidopsis thaliana, UniProt O81498); test: as above; conditions: 30° C.; ND = not detected
T3 construct: made in house; host or cells: E. coli
T3 sequence (O81498 1-481): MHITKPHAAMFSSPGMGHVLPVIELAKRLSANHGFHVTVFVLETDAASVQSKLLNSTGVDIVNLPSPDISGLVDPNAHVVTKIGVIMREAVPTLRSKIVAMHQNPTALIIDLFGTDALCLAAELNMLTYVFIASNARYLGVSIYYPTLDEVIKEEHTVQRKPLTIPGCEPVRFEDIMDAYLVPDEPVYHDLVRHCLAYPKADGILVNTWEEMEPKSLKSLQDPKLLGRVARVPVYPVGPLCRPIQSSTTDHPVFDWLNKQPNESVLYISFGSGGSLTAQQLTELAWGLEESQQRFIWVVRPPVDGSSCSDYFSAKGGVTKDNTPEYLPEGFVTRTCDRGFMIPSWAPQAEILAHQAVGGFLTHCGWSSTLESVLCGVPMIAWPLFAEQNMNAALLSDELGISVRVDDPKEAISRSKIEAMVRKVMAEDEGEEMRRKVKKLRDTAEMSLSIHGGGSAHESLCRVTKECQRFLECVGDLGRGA

recombinant GTase A961 = biological target: T4, recombinant GTase A961 (Arabidopsis thaliana, UniProt O82381); test: as above; conditions: 30° C.; ND = not detected
T4 construct: made in house; host or cells: E. coli
T4 sequence (O82381 1-481): T1 sequence (O82381 1-481)

recombinant GTase A962 = biological target: T5, recombinant GTase A962 (Arabidopsis thaliana, UniProt O82382); test: as above; conditions: 30° C.; ND = not detected
T5 construct: made in house; host or cells: E. coli
T5 sequence (O82382 1-474): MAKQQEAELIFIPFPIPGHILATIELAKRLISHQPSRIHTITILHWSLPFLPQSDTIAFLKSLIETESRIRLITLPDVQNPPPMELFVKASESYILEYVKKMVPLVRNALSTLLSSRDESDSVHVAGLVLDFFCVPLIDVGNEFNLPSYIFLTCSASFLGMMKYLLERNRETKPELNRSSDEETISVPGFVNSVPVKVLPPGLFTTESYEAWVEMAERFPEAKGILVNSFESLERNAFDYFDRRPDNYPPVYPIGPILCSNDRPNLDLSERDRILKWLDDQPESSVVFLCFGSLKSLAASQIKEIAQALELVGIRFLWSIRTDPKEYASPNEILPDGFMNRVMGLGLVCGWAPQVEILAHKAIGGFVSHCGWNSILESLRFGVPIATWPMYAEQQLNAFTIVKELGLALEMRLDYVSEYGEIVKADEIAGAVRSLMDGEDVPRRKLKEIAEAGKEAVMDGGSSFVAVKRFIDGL

recombinant GTase A119 = biological target: T6, recombinant GTase A119 (Arabidopsis thaliana, UniProt Q9LVR1); test: as above; conditions: 30° C.; ND = not detected
T6 construct: made in house; host or cells: E. coli
T6 sequence (Q9LVR1 1-481): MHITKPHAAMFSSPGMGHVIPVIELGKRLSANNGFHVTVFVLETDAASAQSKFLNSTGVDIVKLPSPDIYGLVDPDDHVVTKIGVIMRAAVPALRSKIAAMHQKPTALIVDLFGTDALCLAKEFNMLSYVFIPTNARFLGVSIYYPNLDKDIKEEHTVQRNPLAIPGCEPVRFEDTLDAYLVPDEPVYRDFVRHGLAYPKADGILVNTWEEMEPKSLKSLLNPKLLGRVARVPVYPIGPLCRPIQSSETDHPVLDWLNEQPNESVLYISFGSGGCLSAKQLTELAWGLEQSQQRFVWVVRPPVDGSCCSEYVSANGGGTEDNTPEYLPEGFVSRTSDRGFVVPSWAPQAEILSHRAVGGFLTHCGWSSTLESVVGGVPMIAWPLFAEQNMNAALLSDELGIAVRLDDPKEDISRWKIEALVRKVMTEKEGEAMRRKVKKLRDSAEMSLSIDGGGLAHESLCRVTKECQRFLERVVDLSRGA

recombinant GTase A41 = biological target: T7, recombinant GTase A41 (Arabidopsis thaliana, UniProt Q5XF20); test: Specific activity of recombinant GTase producing glucose ester against lignin precursors (HPLC); conditions: 5 mM UDPG, 0.2 μg GTase, 200 μl, 20° C., 30 min
T7 construct: made in house; host or cells: E. coli
T7 sequence (Q5XF20 7-490): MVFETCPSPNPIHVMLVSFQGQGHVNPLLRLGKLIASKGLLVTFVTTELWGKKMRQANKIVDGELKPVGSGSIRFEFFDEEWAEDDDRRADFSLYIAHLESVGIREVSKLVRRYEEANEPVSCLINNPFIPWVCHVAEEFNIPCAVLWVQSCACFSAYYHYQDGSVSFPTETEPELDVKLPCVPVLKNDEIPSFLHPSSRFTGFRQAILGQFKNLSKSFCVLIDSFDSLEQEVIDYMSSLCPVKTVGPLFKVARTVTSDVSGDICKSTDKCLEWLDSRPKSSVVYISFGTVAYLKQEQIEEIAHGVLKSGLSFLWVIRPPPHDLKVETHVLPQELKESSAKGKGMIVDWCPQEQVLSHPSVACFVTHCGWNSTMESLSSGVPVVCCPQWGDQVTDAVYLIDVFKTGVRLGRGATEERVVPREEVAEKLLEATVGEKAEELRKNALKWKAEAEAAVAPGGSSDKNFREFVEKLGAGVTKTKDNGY

recombinant GTase A43 = biological target: T8, recombinant GTase A43 (Arabidopsis thaliana, UniProt O23402); test: as above; conditions: 0.5 ml of potential substrates, 5 mM UDPG, 0.2 μg GTase, 200 μl, 20° C., 30 min
T8 construct: made in house; host or cells: E. coli

recombinant GTase A062 = biological target: T9, recombinant GTase A062 (Arabidopsis thaliana, UniProt Q9LR44); test: as above; conditions: 0.5 ml of potential substrates, 5 mM UDPG, 0.2 μg GTase, 200 μl, 20° C., 30 min
T9 construct: made in house; host or cells: E. coli
T9 sequence (Q9LR44 1-469): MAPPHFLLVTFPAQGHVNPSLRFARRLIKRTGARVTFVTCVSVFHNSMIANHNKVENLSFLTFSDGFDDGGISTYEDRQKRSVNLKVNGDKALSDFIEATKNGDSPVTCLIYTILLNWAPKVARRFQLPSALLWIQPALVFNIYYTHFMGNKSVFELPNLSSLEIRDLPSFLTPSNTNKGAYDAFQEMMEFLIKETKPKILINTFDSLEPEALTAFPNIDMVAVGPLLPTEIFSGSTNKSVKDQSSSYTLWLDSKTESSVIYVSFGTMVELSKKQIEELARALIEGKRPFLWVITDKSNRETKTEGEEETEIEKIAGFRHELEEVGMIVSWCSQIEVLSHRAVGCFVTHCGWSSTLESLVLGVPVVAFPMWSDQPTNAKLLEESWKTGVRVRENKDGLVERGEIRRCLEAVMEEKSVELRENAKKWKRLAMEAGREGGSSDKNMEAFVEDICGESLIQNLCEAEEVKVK

recombinant GTase A911 = biological target: T10, recombinant GTase A911 (Arabidopsis thaliana, UniProt O22182); test: as above; parameters: made in house; host or cells: E. coli; conditions: 0.5 ml of potential substrates, 5 mM UDPG, 0.2 μg GTase, 200 μl, 20° C., 30 min
T10 sequence (O22182 1-456): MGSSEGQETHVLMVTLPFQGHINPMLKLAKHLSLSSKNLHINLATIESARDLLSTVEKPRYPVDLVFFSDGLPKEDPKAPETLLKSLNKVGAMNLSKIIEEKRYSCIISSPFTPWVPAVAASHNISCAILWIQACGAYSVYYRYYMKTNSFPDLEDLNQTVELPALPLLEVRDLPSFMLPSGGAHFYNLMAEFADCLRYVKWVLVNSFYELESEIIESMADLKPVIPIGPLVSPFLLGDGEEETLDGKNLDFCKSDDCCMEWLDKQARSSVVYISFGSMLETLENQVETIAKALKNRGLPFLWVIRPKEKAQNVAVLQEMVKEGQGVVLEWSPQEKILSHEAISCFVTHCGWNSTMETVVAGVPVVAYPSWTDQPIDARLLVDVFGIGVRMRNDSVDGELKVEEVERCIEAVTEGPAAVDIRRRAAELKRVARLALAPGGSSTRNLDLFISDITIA

Row | Molecule | Specific activity (UGT71C1) (UGT71C1) [nkat/mg] | Specific activity of A961 (substrate converted to 4-O-glucoside) (recombinant GTase A961) [nkat/mg] | Specific activity of A962 (substrate converted to 4-O-glucoside) (recombinant GTase A962) [nkat/mg] | further results
1 | O=C(O)c1ccc(O)c(O)c1 [3,4-dihydroxybenzoic acid] | 0 | – | – | –
2 | O=C(O)c1ccc(O)cc1 [4-hydroxybenzoic acid] | 0 | – | – | –
3 | COc1cc(/C=C/CO)ccc1O [Coniferyl alcohol, coniferyl alcohol] | – | 0.57 | 0.49 | Specific activity of A233 (substrate converted to 4-O-glucoside) (recombinant GTase A233): 0.46 nkat/mg; Specific activity of A407 (substrate converted to 4-O-glucoside) (recombinant GTase A407): 2.78 nkat/mg
4 | COc1cc(/C=C/C=O)ccc1O [Coniferyl aldehyde, coniferyl aldehyde] | – | 0.16 | 0.34 | Specific activity of A119 (substrate converted to 4-O-glucoside) (recombinant GTase A119): 1.08 nkat/mg
5 | O=C1C[C@@H](c2ccc(O)c(O)c2)Oc2cc(O)cc(O)c21 [Eriodictyol] | 0 | – | – | –
6 | O=c1ccc2cc(O)c(O)cc2o1 [Esculetin] | 34.8 ± 4.2 | – | – | –
7 | O=c1cc(-c2ccc(O)c(O)c2)oc2cc(O)cc(O)c12 [Luteolin] | 0.7 ± 0.1 | – | – | –
8 | O=c1c(O)c(-c2ccc(O)c(O)c2)oc2cc(O)cc(O)c12 [Quercetin] | 1.4 ± 0.4 | – | – | –
9 | COc1cc2ccc(=O)oc2cc1O [Scopoletin] | 29.4 ± 3.9 | – | – | –
10 | COc1cc(/C=C/C(=O)O)cc(OC)c1O [Sinapic acid, sinapic acid] | 0 | 0.01 | 0.01 | Specific activity of A41 (substrate converted to glucose ester) (recombinant GTase A41): 5.35 nkat/mg; Specific activity of A43 (substrate converted to glucose ester) (recombinant GTase A43): 0.05 nkat/mg; Specific activity of A062 (substrate converted to glucose ester) (recombinant GTase A062): 0.1 nkat/mg; Specific activity of A233 (substrate converted to 4-O-glucoside) (recombinant GTase A233): 0.39 nkat/mg; Specific activity of A407 (substrate converted to 4-O-glucoside) (recombinant GTase A407): 65.39 nkat/mg; Specific activity of A911 (substrate converted to glucose ester) (recombinant GTase A911): 0.15 nkat/mg
11 | O=C(O)/C=C/c1cccc(O)c1 [m-Coumaric acid] | 1.2 ± 0.2 | – | – | –
12 | O=C(O)/C=C/c1ccccc1O [o-Coumaric acid] | 1.5 ± 0.2 | – | – | –
13 | O=C/C=C/c1ccc(O)cc1 [p-coumaryl aldehyde] | – | 0.01 | 0.02 | Specific activity of A119 (substrate converted to 4-O-glucoside) (recombinant GTase A119): 0.03 nkat/mg
14 | COc1cc(/C=C/CO)cc(OC)c1O [sinapyl alcohol] | – | 0.35 | 0.45 | Specific activity of A233 (substrate converted to 4-O-glucoside) (recombinant GTase A233): 0.05 nkat/mg; Specific activity of A119 (substrate converted to 4-O-glucoside) (recombinant GTase A119): 126.16 nkat/mg; Specific activity of A407 (substrate converted to 4-O-glucoside) (recombinant GTase A407): 114.76 nkat/mg
15 | COc1cc(/C=C/C=O)cc(OC)c1O [sinapyl aldehyde] | – | 0.57 | 0.50 | Specific activity of A119 (substrate converted to 4-O-glucoside) (recombinant GTase A119): 4.55 nkat/mg
16 | Catechin | 0 | – | – | –
